Measured values: publication PMC4774911, “Biochemical Screening of Five Protein Kinases from Plasmodium falciparum against 14,000 Cell-Active Compounds” (PLoS ONE, 2016)
Where “and” joins values, the source holds several entries; their conditions need not be identical. Identical values can stand only once.

Tests used:
Assay in all cases: biochemical
STK4 = target: T1, STK4 (Homo sapiens, UniProt Q13043)
T1 sequence (Q13043 1-487): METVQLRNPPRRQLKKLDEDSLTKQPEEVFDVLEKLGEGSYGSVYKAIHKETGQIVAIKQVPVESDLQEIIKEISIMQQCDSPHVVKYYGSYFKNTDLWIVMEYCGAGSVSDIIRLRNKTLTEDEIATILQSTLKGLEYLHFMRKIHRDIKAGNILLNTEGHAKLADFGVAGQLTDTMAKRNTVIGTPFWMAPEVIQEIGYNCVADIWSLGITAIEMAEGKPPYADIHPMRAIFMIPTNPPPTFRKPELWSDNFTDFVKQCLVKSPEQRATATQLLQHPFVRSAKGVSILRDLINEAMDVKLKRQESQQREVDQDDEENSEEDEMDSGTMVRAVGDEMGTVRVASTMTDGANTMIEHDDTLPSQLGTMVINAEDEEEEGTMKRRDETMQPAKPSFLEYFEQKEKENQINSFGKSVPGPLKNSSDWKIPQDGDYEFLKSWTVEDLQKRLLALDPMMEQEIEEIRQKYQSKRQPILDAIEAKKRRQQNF

TAOK2 = target: T2, TAOK2 (Homo sapiens, UniProt Q9UL54)
T2 sequence (Q9UL54 1-1235): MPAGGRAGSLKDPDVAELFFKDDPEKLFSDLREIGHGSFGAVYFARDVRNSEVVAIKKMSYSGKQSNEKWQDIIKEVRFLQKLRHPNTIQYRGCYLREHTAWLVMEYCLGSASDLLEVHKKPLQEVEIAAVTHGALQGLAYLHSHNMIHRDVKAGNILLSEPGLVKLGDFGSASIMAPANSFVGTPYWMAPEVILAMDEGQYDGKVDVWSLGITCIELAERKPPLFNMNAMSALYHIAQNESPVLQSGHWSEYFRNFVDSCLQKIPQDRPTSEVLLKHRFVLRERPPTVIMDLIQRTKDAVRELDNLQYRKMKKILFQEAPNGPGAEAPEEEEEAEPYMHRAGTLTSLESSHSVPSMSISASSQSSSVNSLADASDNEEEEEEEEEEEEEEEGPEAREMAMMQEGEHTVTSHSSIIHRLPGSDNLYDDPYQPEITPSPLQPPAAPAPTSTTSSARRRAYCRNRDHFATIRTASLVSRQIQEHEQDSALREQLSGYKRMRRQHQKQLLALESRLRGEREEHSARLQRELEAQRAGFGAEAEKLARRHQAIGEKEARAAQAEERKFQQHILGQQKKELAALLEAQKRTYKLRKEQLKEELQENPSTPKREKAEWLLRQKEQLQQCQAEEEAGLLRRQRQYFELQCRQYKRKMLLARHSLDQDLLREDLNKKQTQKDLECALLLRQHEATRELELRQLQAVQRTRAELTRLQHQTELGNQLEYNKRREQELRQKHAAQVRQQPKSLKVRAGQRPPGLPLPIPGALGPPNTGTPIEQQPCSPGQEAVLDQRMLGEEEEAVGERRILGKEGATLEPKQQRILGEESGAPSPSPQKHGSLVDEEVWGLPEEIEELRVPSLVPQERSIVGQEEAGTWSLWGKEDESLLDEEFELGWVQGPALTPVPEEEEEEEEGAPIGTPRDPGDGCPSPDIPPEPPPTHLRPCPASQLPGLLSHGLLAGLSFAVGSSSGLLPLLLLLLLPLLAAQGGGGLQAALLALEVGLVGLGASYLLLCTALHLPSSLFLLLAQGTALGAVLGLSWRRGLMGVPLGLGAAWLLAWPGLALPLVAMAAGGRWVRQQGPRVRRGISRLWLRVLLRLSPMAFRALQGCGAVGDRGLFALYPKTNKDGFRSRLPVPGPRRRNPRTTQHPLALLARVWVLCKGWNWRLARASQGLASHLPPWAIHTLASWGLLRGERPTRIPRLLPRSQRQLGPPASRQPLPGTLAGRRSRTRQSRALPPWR

ERN1 = ERN1 (Homo sapiens, UniProt O75460)
RPS6KA3 = RPS6KA3 (Homo sapiens, UniProt P51812)
PIP4K2B = target: T3, PIP4K2B (Homo sapiens, UniProt P78356)
T3 sequence (P78356 1-416): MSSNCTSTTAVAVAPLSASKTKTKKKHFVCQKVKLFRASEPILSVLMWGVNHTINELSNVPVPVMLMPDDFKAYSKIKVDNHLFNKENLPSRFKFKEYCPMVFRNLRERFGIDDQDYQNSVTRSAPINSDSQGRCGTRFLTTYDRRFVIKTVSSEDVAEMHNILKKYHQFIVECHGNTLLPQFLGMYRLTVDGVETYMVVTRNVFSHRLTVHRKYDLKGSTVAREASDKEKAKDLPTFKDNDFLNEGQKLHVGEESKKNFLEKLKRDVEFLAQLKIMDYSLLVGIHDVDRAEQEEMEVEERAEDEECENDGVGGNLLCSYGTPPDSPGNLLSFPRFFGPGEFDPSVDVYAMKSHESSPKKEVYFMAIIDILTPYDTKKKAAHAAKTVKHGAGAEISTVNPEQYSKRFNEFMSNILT

CDK10 = CDK10 (Homo sapiens, UniProt Q15131)
MKNK1 = MKNK1 (Homo sapiens, UniProt Q9BUB5)
STK17B = STK17B (Homo sapiens, UniProt O94768)
CAMK2A = CAMK2A (Homo sapiens, UniProt Q9UQM7)
Chain of CAMK2A (Q9UQM7 whole entry): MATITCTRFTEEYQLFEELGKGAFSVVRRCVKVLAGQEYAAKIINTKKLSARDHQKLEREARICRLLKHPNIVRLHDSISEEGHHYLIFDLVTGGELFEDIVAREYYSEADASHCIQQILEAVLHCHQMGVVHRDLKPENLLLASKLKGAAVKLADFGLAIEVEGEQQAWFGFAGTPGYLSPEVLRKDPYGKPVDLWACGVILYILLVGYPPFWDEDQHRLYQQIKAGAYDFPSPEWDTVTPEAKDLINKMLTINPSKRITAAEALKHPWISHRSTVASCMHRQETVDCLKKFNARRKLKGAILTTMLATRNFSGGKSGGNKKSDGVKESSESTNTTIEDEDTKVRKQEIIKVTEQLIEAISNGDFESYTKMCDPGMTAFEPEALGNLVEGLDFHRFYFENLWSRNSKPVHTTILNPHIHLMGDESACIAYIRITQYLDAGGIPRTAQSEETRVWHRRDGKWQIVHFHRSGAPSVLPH

Chain of RPS6KA3 (P51812 whole entry): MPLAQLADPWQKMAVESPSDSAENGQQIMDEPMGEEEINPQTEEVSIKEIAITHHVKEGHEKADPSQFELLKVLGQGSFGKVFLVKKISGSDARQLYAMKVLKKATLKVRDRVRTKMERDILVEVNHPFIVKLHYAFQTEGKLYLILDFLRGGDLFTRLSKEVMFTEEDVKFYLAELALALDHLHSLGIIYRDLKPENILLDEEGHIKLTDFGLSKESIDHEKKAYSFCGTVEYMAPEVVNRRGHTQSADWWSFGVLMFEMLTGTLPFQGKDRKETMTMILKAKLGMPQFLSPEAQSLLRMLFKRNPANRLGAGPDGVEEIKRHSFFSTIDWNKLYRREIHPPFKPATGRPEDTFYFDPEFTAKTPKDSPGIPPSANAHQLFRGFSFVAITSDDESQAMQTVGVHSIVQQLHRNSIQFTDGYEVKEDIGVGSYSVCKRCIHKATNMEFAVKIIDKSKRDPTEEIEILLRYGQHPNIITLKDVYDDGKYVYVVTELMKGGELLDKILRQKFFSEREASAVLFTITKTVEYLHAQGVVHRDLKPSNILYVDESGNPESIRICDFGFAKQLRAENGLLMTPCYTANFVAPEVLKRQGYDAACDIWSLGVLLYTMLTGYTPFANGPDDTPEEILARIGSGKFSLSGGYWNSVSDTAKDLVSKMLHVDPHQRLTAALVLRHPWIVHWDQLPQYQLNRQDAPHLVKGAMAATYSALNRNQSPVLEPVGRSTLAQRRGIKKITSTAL
Chain of MKNK1 (Q9BUB5 whole entry): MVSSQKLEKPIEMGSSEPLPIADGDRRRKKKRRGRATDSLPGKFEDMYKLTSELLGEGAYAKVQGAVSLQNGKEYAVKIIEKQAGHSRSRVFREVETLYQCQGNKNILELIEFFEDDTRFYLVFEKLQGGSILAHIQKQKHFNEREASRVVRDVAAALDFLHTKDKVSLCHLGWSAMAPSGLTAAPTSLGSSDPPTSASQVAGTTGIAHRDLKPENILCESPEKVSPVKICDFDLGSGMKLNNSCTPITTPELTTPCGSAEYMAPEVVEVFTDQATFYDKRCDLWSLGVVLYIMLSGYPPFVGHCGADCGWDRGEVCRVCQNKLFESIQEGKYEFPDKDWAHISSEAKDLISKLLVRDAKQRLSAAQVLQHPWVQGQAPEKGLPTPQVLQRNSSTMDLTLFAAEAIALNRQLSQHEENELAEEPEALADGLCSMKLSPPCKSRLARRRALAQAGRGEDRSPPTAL
Chain of STK17B (O94768 whole entry): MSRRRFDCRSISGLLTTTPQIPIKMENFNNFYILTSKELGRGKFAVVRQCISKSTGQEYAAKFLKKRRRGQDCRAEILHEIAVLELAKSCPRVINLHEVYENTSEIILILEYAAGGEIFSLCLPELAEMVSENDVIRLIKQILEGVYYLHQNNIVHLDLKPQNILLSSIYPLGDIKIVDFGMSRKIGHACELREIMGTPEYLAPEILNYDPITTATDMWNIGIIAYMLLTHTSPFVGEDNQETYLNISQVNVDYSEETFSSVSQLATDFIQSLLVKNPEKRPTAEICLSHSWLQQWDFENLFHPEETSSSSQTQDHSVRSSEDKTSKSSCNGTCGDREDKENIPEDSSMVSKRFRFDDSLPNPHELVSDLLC
Chain of ERN1 (O75460 whole entry): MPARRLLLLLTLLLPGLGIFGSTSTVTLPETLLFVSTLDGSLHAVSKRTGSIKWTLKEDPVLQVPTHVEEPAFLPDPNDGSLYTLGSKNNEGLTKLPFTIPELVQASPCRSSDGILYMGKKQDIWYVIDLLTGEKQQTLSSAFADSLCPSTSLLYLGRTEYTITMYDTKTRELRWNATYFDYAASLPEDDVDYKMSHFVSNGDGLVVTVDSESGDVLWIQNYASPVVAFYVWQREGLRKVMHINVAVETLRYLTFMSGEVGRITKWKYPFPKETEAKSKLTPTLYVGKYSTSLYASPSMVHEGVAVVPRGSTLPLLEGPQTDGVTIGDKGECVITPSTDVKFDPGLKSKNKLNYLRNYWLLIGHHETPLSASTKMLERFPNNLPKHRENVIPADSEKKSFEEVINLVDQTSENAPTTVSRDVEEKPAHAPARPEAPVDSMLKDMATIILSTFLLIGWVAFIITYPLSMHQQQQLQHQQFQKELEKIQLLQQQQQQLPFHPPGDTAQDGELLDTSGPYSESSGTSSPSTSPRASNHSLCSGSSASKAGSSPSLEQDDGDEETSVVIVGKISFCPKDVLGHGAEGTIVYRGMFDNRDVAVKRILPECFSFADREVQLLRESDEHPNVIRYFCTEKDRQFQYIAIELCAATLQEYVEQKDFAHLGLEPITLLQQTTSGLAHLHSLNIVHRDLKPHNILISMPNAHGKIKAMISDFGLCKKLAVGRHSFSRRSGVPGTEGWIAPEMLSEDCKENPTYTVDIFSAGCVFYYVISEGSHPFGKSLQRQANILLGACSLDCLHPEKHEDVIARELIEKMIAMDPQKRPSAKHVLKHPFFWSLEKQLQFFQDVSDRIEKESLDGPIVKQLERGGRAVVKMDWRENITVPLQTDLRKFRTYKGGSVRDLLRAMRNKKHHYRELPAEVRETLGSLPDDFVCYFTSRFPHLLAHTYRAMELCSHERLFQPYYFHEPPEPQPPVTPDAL
Chain of CDK10 (Q15131 whole entry): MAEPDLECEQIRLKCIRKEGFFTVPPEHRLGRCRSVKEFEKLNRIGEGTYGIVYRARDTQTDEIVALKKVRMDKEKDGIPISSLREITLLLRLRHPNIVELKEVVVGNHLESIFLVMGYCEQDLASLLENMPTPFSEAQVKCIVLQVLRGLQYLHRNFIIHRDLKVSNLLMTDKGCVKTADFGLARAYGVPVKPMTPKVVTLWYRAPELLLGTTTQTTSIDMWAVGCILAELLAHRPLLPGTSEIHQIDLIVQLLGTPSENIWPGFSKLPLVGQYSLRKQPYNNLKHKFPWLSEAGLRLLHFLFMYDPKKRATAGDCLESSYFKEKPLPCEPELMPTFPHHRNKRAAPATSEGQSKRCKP

Row | SMILES | IC50 (STK4) | IC50 (TAOK2) | IC50 (ERN1) | IC50 (RPS6KA3) | IC50 (PIP4K2B) | IC50 (CDK10) | IC50 (MKNK1) | IC50 (STK17B) | IC50 (CAMK2A)
1 | CN1CCN(c2ccc(Nc3ncc(C#N)c(Nc4ccccc4C(N)=O)n3)cc2)CC1.Cl [TCMDC-134116] | 0.19 µM and 0.22 µM | 0.4 µM | 0.17 µM | 0.089 µM and 0.12 µM | 1.6 µM and 1 µM | – | – | – | –
2 | Cl.NCC1(c2nc(-c3ccc(Cl)c(O)c3)c(-c3ccncc3)[nH]2)CCCCC1 [TCMDC-141154] | > 20 µM | – | – | > 20 µM | – | > 20 µM | > 20 µM | > 20 µM | > 20 µM
3 | CN(C)CC(O)COc1ccc(Nc2ncc([N+](=O)[O-])c(Nc3ccccc3O)n2)cc1.O=C(O)C(F)(F)F (stereo not drawn) [TCMDC-141399] | – | > 20 µM | > 20 µM | – | 0.97 µM | 1.6 µM | > 20 µM | > 20 µM | > 20 µM
